From patent publication US7544707B2, “Bicyclic derivatives as PPAR modulators” (Eli Lilly and Company, priority 2003, dated 2009)

Compound	melting point [°C]
Cc1cc(SCc2cccc3nn(-c4ccc(C(F)(F)F)cc4)cc23)ccc1OC(C)(C)C(=O)O [Example 71, 2-Methyl-2-{2-methyl-4-[2-(4-trifluoromethylphenyl)-2H-indazol-4-ylmethylsulfanyl]phenoxy}propionic Acid]	125 to 127
Cc1cc(OCc2cccc3c2cnn3-c2ccc(C(F)(F)F)cc2)ccc1OC(C)(C)C(=O)O [Example 77, 2-Methyl-2-{2-methyl-4-[1-(4-trifluoromethylphenyl)-1H-indazol-4-ylmethoxy]phenoxy}propionic Acid]	100 to 104
Cc1cc(SCc2cccc3c2cnn3-c2ccc(C(F)(F)F)cc2)ccc1OC(C)(C)C(=O)O [Example 78, 2-Methyl-2-{2-methyl-4-[1-(4-trifluoromethylphenyl)-1H-indazol-4-ylmethylsufanyl]phenoxy}propionic Acid]	62 to 66
CC(C)(Oc1ccc(SCc2cccc3c2cnn3-c2ccc(C(F)(F)F)cc2)cc1)C(=O)O [Example 79, 2-Methyl-2-{4-[1-(4-trifluoromethylphenyl)-1H-indazol-4-ylmethylsulfanyl]phenoxy}propionic Acid]	158 to 160
CC(C)(Sc1ccc(OCc2cccc3c2cnn3-c2ccc(C(F)(F)F)cc2)cc1)C(=O)O [Example 80, 2-Methyl-2-{4-[1-(4-trifluoromethylphenyl)-1H-indazol-4-ylmethoxy]phenylsulfanyl}propionic Acid]	168 to 170
CC(C)(Oc1ccc(OCc2cccc3c2cnn3-c2ccc(C(F)(F)F)cc2)cc1)C(=O)O [Example 81, 2-Methyl-2-{4-[1-(4-trifluoromethylphenyl)-1H-indazol-4-ylmethoxy]phenoxy}propionic Acid]	128 to 130

Results, then the compound that gave them:

melting point [°C]	Compound
124 to 126	Cc1cc(OCc2cccc3cnn(-c4ccc(C(F)(F)F)cc4)c23)ccc1OC(C)(C)C(=O)O [Example 96, 2-Methyl-2-{2-methyl-4-[1-(4-trifluoromethylphenyl)-1H-indazol-7-ylmethoxy]phenoxy}propionic Acid]
214 to 216	CC(C)(Sc1ccc(OCc2cccc3cnn(-c4ccc(C(F)(F)F)cc4)c23)cc1)C(=O)O [Example 97, 2-Methyl-2-{4-[1-(4-trifluoromethylphenyl)-1H-indazol-7-ylmethoxy]phenylsulfanyl}propionic Acid]
154 to 158	Cc1cc(SCc2cccc3cnn(-c4ccc(C(F)(F)F)cc4)c23)ccc1OC(C)(C)C(=O)O [Example 98, 2-Methyl-2-{2-methyl-4-[1-(4-trifluoromethylphenyl)-1H-indazol-7-ylmethylsulfanyl]phenoxy}propionic Acid]
125 to 128	CC(C)(Oc1ccc(SCc2cccc3cnn(-c4ccc(C(F)(F)F)cc4)c23)cc1)C(=O)O [Example 99, 2-Methyl-2-{4-[1-(4-trifluoromethylphenyl)-1H-indazol-7-ylmethylsulfanyl]phenoxy}propionic Acid]
146 to 149	CC(C)(Oc1ccc(OCc2cccc3cnn(-c4ccc(C(F)(F)F)cc4)c23)cc1)C(=O)O [Example 100, 2-Methyl-1-2-{4-[1-(4-trifluoromethylphenyl)-1H-indazol-7-ylmethoxy]phenoxy}propionic Acid]
